Assays:
[1] = Anti-austerity antiproliferative activity against human PANC1 cells after 72 hrs in presence of 10 % serum; format: cell-based; settings: PANC-1, 72 h
HT-29 [2] = assay: Anti-austerity antiproliferative activity against nutrient-deprived human HT-29 cells after 72 hrs in presence of 0.5% serum; format: functional, cell-based; settings: HT-29, 72 h
[3] = Anti-austerity antiproliferative activity against nutrient-deprived human PANC1 cells after 72 hrs in presence of 0.5% serum; format: functional, cell-based; settings: PANC-1, 72 h
HT-29 [4] = assay: Anti-austerity antiproliferative activity against human HT-29 cells after 72 hrs in presence of 10 % serum; format: cell-based; settings: HT-29, 72 h

Compound | IC50 [1] [µM] | IC50 (HT-29 [2]) [µM] | IC50 [3] [µM] | IC50 (HT-29 [4]) [µM]
O=C(OC[C@@]1(O)C(=O)C=C[C@H]2[C@@H]1[C@H]1C=C[C@@H]2C(=O)[C@]1(O)COC(=O)c1ccccc1)c1ccccc1 | 123 | > 500 | > 500 | 109
O=C(OC[C@@]1(O)C(=O)C=C[C@H]2[C@@H]1[C@H]1C=C[C@@H]2C(=O)[C@]1(O)COC(=O)c1ccc(Cl)cc1)c1ccc(Cl)cc1 | 84 | 18 | 77 | 39
COc1ccc(C(=O)OC[C@@]2(O)C(=O)C=C[C@H]3[C@@H]2[C@H]2C=C[C@@H]3C(=O)[C@]2(O)COC(=O)c2ccc(OC)cc2)cc1 | 78 | 22 | 52 | 35
O=C(OC[C@@]1(O)C(=O)CC[C@H]2[C@@H]1[C@H]1CC[C@@H]2C(=O)[C@]1(O)COC(=O)c1ccccc1)c1ccccc1 | 81 | 27 | 86 | 39
